# Experimental data as given in US9416128B2, “Fused heterocyclic compounds as ion channel modulators” (Gilead Sciences, Inc., priority 2013, dated 2016).
# Tests used:
# [1] = test system: ischemia-induced ST segment elevation; assay: Ischemia-induced ST segment elevation in anesthetized rabbits; format: in vivo, rabbit; conditions: iv infusion, 0.9 uM concentration
# Procedure: This study was undertaken to determine the anti-ischemic effects of compounds of the present disclosure in an in vivo rabbit model.
# Female New Zealand rabbits (3.0-4.0 kg) were purchased from Western Oregon Rabbitry. Animals were housed on a 12-h light and dark cycle and received standard laboratory chow and water. All experiments were performed in accordance with the Guide for the Care and Use of Laboratory Animals published by The National Research Council and with the experimental protocol approved by the Institutional Animal Care Committee of Gilead Sciences, Inc.
# Rabbits were anesthetized with ketamine (35 mg/kg) and xylazine (5 mg/kg) intramuscular injection (im). A tracheotomy was performed and the trachea was intubated with an endotracheal tube. […]
# Reference electrodes were placed in the open incision of the neck. The body temperature of the animal was monitored via a rectal thermometer and maintained at 37-40° C. by adjusting the surface temperature of the surgical table. […] The ischemic area was visualized by perfusing the heart with 1% Evans blue in saline and calculated as a percentage of total ventricular weight. […]
# hNaV1.3 (SCN3A) = assay: Voltage-dependent inhibition of the NaV1.3 sodium channel; format: cell-based, human; conditions: voltage-dependent block at 1 uM
# Procedure: HEK-293 cells stably expressing wild-type (WT) hNaV1.3 (SCN3A NCBI # NP_001075, SCN1B NCBI # NM_001037.4, SCN2B NCBI # NM_004588.2) were used to record INa. Cells are maintained with standard tissue culture procedures and stable channel expression is maintained with 800 ug/mL G418 and 3 ug/mL Puromycin in the culture medium. Unless otherwise noted, all reagents are purchased from Sigma-Aldrich (St Louis, Mo., U.S.A.).
# Assays measuring Voltage-Dependent Block (VDB) of NaV1.3 are performed on an automated electrophysiology platform, QPatch 16X or QPatch HT (Sophion Bioscience, Copenhagen, Denmark), using the whole cell patch clamp technique to measure currents through the cell membrane. Series resistance compensation is set to 100% and series resistance and whole-cell compensation are performed automatically. Currents stored in the Sophion Bioscience Oracle database (Sophion Bioscience, Copenhagen, Denmark). Analysis is performed using QPatch Assay software and data are compiled in Excel 2010 (Microsoft, Seattle, Wash., U.S.A.).
# The internal (pipette) solution consists of (in mM) 105 CsF, 10 NaF, 20 CsCl, 2 EGTA, 10 HEPES, 10 Dextrose with a pH of 7.35 and osmolarity of 300 mOsmol/kg. The external (bath) solution contains in (mM): 80 NaCl, 60 Choline-Cl, 4 KCl, 1.8 CaCl2, 1 MgCl2, 10 dextrose, 10 HEPES, with a pH of 7.35 and osmolarity of 310 mOsmol/kg. Experiments are carried out at 23-25° C.
# Compound stocks are routinely made by the Gilead Sample Bank in vials to 10 mM in dimethyl sulfoxide (DMSO). In some cases, when compounds are not soluble in DMSO, they are made in 100% ethanol. […] Cells are allowed to stabilize for 10 min after establishment of the whole-cell configuration before current is measured. […]
# Voltage-dependent block of NaV1.3 peak current was measured during a voltage step to 0 mV (20 ms) following a voltage step pre-conditioning steps (−55 mV for 10 sec followed by −120 mV for 10 ms). […] The voltage protocol for VDB was performed every 45 seconds in the absence and presence of compound and percentage inhibition was calculated with respect to the compound free condition.
SMILES,inhibition in the rabbit ST segment elevation assay [1],NaV1.3 VDB % inhibition at 1 uM (hNaV1.3 (SCN3A))
"COc1cc(OC(F)(F)F)ccc1-c1ccc2c(c1)CN(Cc1ncccn1)C(=O)O2 [Example 1, 6-(2-methoxy-4-(trifluoromethoxy)phenyl)-3-(pyrimidin-2-ylmethyl)-3,4-dihydro-2H-benzo[e][1,3]oxazin-2-one]",58%,
"Cc1cc(-c2ccc3c(c2)CN(Cc2ncccn2)C(=O)O3)ccc1OC(F)(F)F [Example 5, 6-(3-methyl-4-(trifluoromethoxy)phenyl)-3-(pyrimidin-2-ylmethyl)-3,4-dihydro-2H-benzo[e][1,3]oxazin-2-one]",,31%
"O=C1Oc2ccc(-c3ccc(OC(F)(F)F)cc3F)cc2CN1Cc1ncccn1 [Example 7, 6-(2-fluoro-4-(trifluoromethoxy)phenyl)-3-(pyrimidin-2-ylmethyl)-3,4-dihydro-2H-benzo[e][1,3]oxazin-2-one]",,32%
"Cc1cc(OC(F)(F)F)ccc1-c1ccc2c(c1)CN(Cc1ncccn1)C(=O)O2 [Example 8, 6-(2-methyl-4-(trifluoromethoxy)phenyl)-3-(pyrimidin-2-ylmethyl)-3,4-dihydro-2H-benzo[e][1,3]oxazin-2-one]",,13.8%
